Test results as given in publication PMC12157126, “Saturation kinetics and specificity of transporters for L-arginine and asymmetric dimethylarginine (ADMA) at the blood-brain and blood-CSF barriers” (PLOS One, 2025).

Key:
[1] = tested on: blood-brain and blood-CSF barriers; test: In situ brain/choroid plexus perfusion with capillary depletion: CNS uptake of [3H]-arginine in absence and presence of transporter inhibitors; format: in vivo, adult male BALB/c mice
Protocol: (§1) The in situ brain/choroid plexus perfusion method was performed as previously described and will only be briefly detailed here. […] At the end of the perfusion period a CSF sample was taken from the cisterna magna, the animal was decapitated, the brain removed and samples taken under a Leica S4E L2 stereomicroscope (Leica; Buckinghamshire, UK). […] The circumventricular organs (CVOs) including the choroid plexus, pituitary gland and pineal gland were also sampled. Brain samples were also taken for capillary depletion analysis.
(§2) Both the physiological capillary depletion buffer and dextran solution were maintained at 4 °C to halt any cell metabolism and transport processes, and to reduce any cellular or protein damage due to heat generated from the homogenisation process. The whole brain homogenate was then taken for dextran density centrifugation (5,400 x g) and 4 °C to produce an endothelial cell-enriched pellet and supernatant containing brain parenchyma.
(§3) The transporter proteins these inhibitors target are listed in S1 Table in S1 File.
(§4) % change=RTissue−RInhibition /RTissue× 100 (2)

[2] = tested on: blood-brain and blood-CSF barriers; test: In situ brain/choroid plexus perfusion with capillary depletion: CNS uptake of [3H]-ADMA in absence and presence of transporter inhibitors; settings: for RBrain of [3H]-ADMA in presence of inhibitor: 10 min, sucrose corrected; for RBrain of [3H]-ADMA in presence of inhibitor / % inhibition of [3H]-ADMA uptake: L-homoarginine 20 mM
Protocol: as §1, §2, §3, §4

[3] = caudate nucleus, BCH 4 mM, α-methyl-D,L-tryptophan 500 μM, L-phenylalanine 200 μM, L-leucine 5 mM, harmaline 2 mM
[4] = frontal cortex, BCH 4 mM, α-methyl-D,L-tryptophan 500 μM, L-phenylalanine 200 μM, L-leucine 5 mM, harmaline 2 mM
[5] = hippocampus, BCH 4 mM, α-methyl-D,L-tryptophan 500 μM, L-phenylalanine 200 μM, L-leucine 5 mM, harmaline 2 mM
[6] = hypothalamus, BCH 4 mM, α-methyl-D,L-tryptophan 500 μM, L-phenylalanine 200 μM, L-leucine 5 mM, harmaline 2 mM
[7] = occipital cortex, BCH 4 mM, α-methyl-D,L-tryptophan 500 μM, L-phenylalanine 200 μM, L-leucine 5 mM, harmaline 2 mM
[8] = pineal gland, BCH 4 mM, α-methyl-D,L-tryptophan 500 μM, L-phenylalanine 200 μM, L-leucine 5 mM, harmaline 2 mM
[9] = thalamus, BCH 4 mM, α-methyl-D,L-tryptophan 500 μM, L-phenylalanine 200 μM, L-leucine 5 mM, harmaline 2 mM

Compound: NC(N)=NCCCC[C@H](N)C(=O)O [L-homoarginine, reference compound]
- inhibition of [3H]-arginine uptake ([1]; 20 mM L-homoarginine, all brain regions (up to), 10 min): up to 99.7%
- inhibition of [3H]-arginine distribution ([1]; 20 mM L-homoarginine, choroid plexus): 99.8%
- reduced uptake of [3H]-arginine ([1]; 20 mM L-homoarginine, hypothalamus, did not attain statistical significance): 98.0%
- inhibition of [3H]-arginine distribution ([1]; 20 mM L-homoarginine, pituitary gland): 97.6%
- decrease in [3H]-arginine distribution ([1]; L-homoarginine, CSF, failed to attain statistical significance (n=3)): 88.4%
- inhibition of [3H]-ADMA uptake ([2]; 20 mM L-homoarginine, all brain regions (up to)): up to 99.2%
- RBrain of [3H]-ADMA in presence of inhibitor ([2]; CSF, BCH 4 mM, α-methyl-D,L-tryptophan 500 μM, L-phenylalanine 200 μM, L-leucine 5 mM, harmaline 2 mM): 2.45±0.52 ml.100g^-1
- RBrain of [3H]-ADMA in presence of inhibitor [2, 3]: 0.18±0.13 ml.100g^-1
- % inhibition of [3H]-ADMA uptake [2, 3]: 99.2%
- RBrain of [3H]-ADMA in presence of inhibitor ([2]; cerebellum, BCH 4 mM, α-methyl-D,L-tryptophan 500 μM, L-phenylalanine 200 μM, L-leucine 5 mM, harmaline 2 mM): 0.37±0.19 ml.100g^-1
- % inhibition of [3H]-ADMA uptake ([2]; cerebellum): 97.9%
- RBrain of [3H]-ADMA in presence of inhibitor ([2]; choroid plexus, BCH 4 mM, α-methyl-D,L-tryptophan 500 μM, L-phenylalanine 200 μM, L-leucine 5 mM, harmaline 2 mM): 30.73±22.20 ml.100g^-1
- % inhibition of [3H]-ADMA uptake ([2]; choroid plexus, BCH 4 mM, L-phenylalanine 200 μM, L-leucine 5 mM, harmaline 2 mM): 88.2%
- RBrain of [3H]-ADMA in presence of inhibitor [2, 4]: 1.06±1.02 ml.100g^-1
- % inhibition of [3H]-ADMA uptake [2, 4]: 95.7%
- RBrain of [3H]-ADMA in presence of inhibitor [2, 5]: 0.20±0.13 ml.100g^-1
- % inhibition of [3H]-ADMA uptake [2, 5]: 99.1%
- RBrain of [3H]-ADMA in presence of inhibitor ([2]; homogenate, BCH 4 mM, α-methyl-D,L-tryptophan 500 μM, L-phenylalanine 200 μM, L-leucine 5 mM, harmaline 2 mM): 3.74±3.52 ml.100g^-1
- RBrain of [3H]-ADMA in presence of inhibitor [2, 6]: 1.54±1.12 ml.100g^-1
- % inhibition of [3H]-ADMA uptake [2, 6]: 94.9%
- RBrain of [3H]-ADMA in presence of inhibitor [2, 7]: 0.49±0.40 ml.100g^-1
- % inhibition of [3H]-ADMA uptake [2, 7]: 97.8%
- RBrain of [3H]-ADMA in presence of inhibitor ([2]; pellet, BCH 4 mM, α-methyl-D,L-tryptophan 500 μM, L-phenylalanine 200 μM, L-leucine 5 mM, harmaline 2 mM): 2.32±1.65 ml.100g^-1
- RBrain of [3H]-ADMA in presence of inhibitor [2, 8]: 12.43±6.87 ml.100g^-1
- % inhibition of [3H]-ADMA uptake [2, 8]: 93.6%
- RBrain of [3H]-ADMA in presence of inhibitor ([2]; pituitary gland, BCH 4 mM, α-methyl-D,L-tryptophan 500 μM, L-phenylalanine 200 μM, L-leucine 5 mM, harmaline 2 mM): 8.57±3.99 ml.100g^-1
- % inhibition of [3H]-ADMA uptake ([2]; pituitary gland, BCH 4 mM, L-phenylalanine 200 μM, L-leucine 5 mM, harmaline 2 mM): 95.3%
- RBrain of [3H]-ADMA in presence of inhibitor ([2]; pons, BCH 4 mM, α-methyl-D,L-tryptophan 500 μM, L-phenylalanine 200 μM, L-leucine 5 mM, harmaline 2 mM): 2.36±1.06 ml.100g^-1
- % inhibition of [3H]-ADMA uptake ([2]; pons): 90.4%
- % inhibition of [3H]-ADMA uptake ([2]; supernatant (brain parenchyma)): 65.8%
- RBrain of [3H]-ADMA in presence of inhibitor ([2]; supernatant, BCH 4 mM, α-methyl-D,L-tryptophan 500 μM, L-phenylalanine 200 μM, L-leucine 5 mM, harmaline 2 mM): 3.43±1.95 ml.100g^-1
- RBrain of [3H]-ADMA in presence of inhibitor [2, 9]: 1.81±0.71 ml.100g^-1
- % inhibition of [3H]-ADMA uptake [2, 9]: 91.4%
- % inhibition of [3H]-ADMA uptake ([2]; whole brain homogenate, L-phenylalanine 200 μM, L-leucine 5 mM): 78.9%

Compound: CC(N)(Cc1c[nH]c2ccccc12)C(=O)O (racemic) [α-methyl-D,L-tryptophan, reference compound]
- effect on [3H]-arginine distribution ([1]; CSF, choroid plexus and pituitary gland, 4 mM BCH or 500 μM α-methyl-D,L-tryptophan): no statistically significant effect
- effect on [3H]-arginine distribution ([1]; homogenate, supernatant, pellet, 4 mM BCH or 500 μM α-methyl-D,L-tryptophan): no significant effect
- effect on [3H]-arginine uptake ([1]; majority of brain regions sampled, 4 mM BCH or 500 μM α-methyl-D,L-tryptophan): did not significantly affect
- inhibition of [3H]-ADMA uptake ([2]; brain and choroid plexus (up to), system B0,+ inhibitors): up to 50.0%
- effect on [3H]-ADMA uptake ([2]; brain homogenate or supernatant): did not significantly affect
- % inhibition of [3H]-ADMA uptake [2, 3]: 49.1%
- % inhibition of [3H]-ADMA uptake [2, 4]: 48.0%
- % inhibition of [3H]-ADMA uptake [2, 7]: 45.5%
- % inhibition of [3H]-ADMA uptake [2, 8]: 80.6%
